# Results as given in patent US20220338759A1, “DEVICE FOR CALCULATING, DURING ONE STEP OR EACH SUCCESSIVE STEP OF THE GAIT OF A SUBJECT, THE PUSH-OFF P0 OF THE SUBJECT” (Centre National De La Recherche Scientifique, priority 2019, published 2022).
# Values joined by “and” are separate entries in the source; they are usually repeats but may differ in a detail not shown here. Equal values may be shown once.
# Assays:
# [1] = tested on: patients with progressive MS (pMS); assay: Prospective observational 12-month study of pMS patients with newly introduced MD1003 (pMS-b cohort): T25FW, Po and falls at M0 and M6; type: in vivo, human; details: for mean change in Po / mean change in TW25F: M6 vs M0
# Method: We perform a prospective observational study to evaluate a measure of a surrogate of ankle push-off moment power (Po) as a biomarker of evolution in pMS patients with stable treatment and pMS patients with newly introduced MD1003 (high-dose biotin). Po is measured during a 10m-walk with U-turn and back, using an IMU attached to each foot. The objective is to assess whether the dynamic measure of Po at 6-month interval reflects the response to treatment (assessed using the change in the timed 25-foot walk or the Expanded Disease Status Scale) and the change in fall risk within 6 months.
# Second, the inventors aim at measuring how this variation in Po impact evolution of fall risk in this group of pMS patients. […] The T25FW, Po and risk of falls was assessed every 6 months using a simple validated protocol and the evolution of Po and the risk of falls were compared for each individual according to their response to treatment.
# Patients—Thirty-three patients with progressive MS (pMS) and 20 gender and age-matched healthy subjects (HS) were enrolled in this longitudinal prospective study (table 1). pMS were recruited consecutively from the outpatient clinic of Percy Hospital (Clamart, France) between December 2017 and April 2018. The inclusion criteria for participation in the pMS cohorts required participants to be at least 18 years old, be diagnosed with primary progressive or secondary progressive multiple sclerosis according to the 2010 International Panel criteria, be capable of walking 20 m with U-turn, be free of any other conditions that affect gait. The exclusion criteria was pregnancy and high-dose biotin intake before M0. From the pMS cohort, the inventors isolated a subgroup, named pMS-b cohort, built with patients who were treated with high-dose biotin (MD1003 100 mg, three times a day) for at least one year after inclusion. For participating in the pMS-b cohort, additional inclusion criteria were those of the cohort Temporary Use Authorisation (TUAc) of MD1003—they had to have been free of any relapse for at least one year and sign the consent to enter the TUA cohort. The other patients were included in a group named pMS-nb. Exclusion criteria from this pMS-nb cohort were the presence of drug intake modification for the six-months prior to inclusions or during the twelve-month follow-up. HS participants were recruited from the hospital and research unit staff between December 2017 and April 2018. The inclusion criteria for participation in the HS cohort included: no report of falls in the past 5 years before inclusion, no disease that could affect their walk. Seventeen patients were included in the pMS-b cohort and 16 in the pMS-nb cohort. All participants gave their written consent to participate in the study. The study protocol was conducted according to the Helsinki principles and approved by Ethic Comity “Protection des Personnes Nord Ouest III” under the ID RCB: 2017-A01538-45.
# Measures—Gait was measured using four 3-dimensional accelerometers (Mtw XSens®, 100 Hz sampling frequency) positioned on the head, lower back (L4-L5 vertebrae) and dorsal part of both feet. Participants performed two walks of 20 m with U-turn (10 m way in and 10 m way out). One trial per visit only was used in this study, as the second trial was done with specific conditions for the sake of a reproducibility test in a previous study. A limit at 7.62 m was drawn for the assessor to timeclock the T25FW during the first way-in. Disease severity was assessed using patient-reported outcomes (the Multiple Sclerosis Walking Scale-12—MSWS—and the Fatigue Impact Scale—FIS) together with clinical evaluation (Expanded Disease Severity Scale [10]-EDSS—and Computerized Speed Cognitive Test [11]—CSCT) and the 25-foot walking test administered according to a validated standardized protocol. […]
# [2] = tested on: progressive multiple sclerosis; details: cited from earlier work
# [3] = pMS-b (n = 17), T25FW at M6 vs M0
smiles,measurement,setting,value
"O=C(O)CCCC[C@@H]1SC[C@@H]2NC(=O)N[C@@H]21 [MD1003, biotin]",response to treatment as defined by a 20% decrease in TW25F,[1]; our cohort (pMS-b),13%
same,"complete responder (≥20% decrease), number of patients","[1]; pMS-b (n = 17), MD1003 100 mg three times a day, T25FW at M6 vs M0",3/17 and 3
same,"complete progressor (≥20% increase), number of patients",[1]; [3],5
same,"complete progressor (≥20% increase), percent of patients",[1]; [3],(29%)
same,"non responder (−10-10% decrease), number of patients",[1]; [3],5
same,"non responder (−10-10% decrease), percent of patients",[1]; [3],(29%)
same,"partial progressor (10-20% increase), number of patients",[1]; [3],2
same,"partial progressor (10-20% increase), percent of patients",[1]; [3],(12%)
same,"partial responder (10-20% decrease), number of patients",[1]; [3],2
same,"partial responder (10-20% decrease), percent of patients",[1]; [3],(12%)
same,participants who decreased their number of falls among the three with Po decreased by more than 20%,[1]; pMS-b cohort,Two
same,significant change of Po after beginning of MD1003,[1]; pMS-b cohort,nearly half the cohort
same,responders (response to treatment by change in timed 25-foot walk or EDSS),"[1]; pMS-b cohort, summary of results, M0 to M6",2/17
same,participants who decreased their Po by more than 20%,"[1]; pMS-b cohort, M0 to M6",Three
same,mean change in Po,[1]; pMS-b complete progressors,−0.36
same,mean change in TW25F,[1]; pMS-b complete progressors,1.39
same,mean change in Po,[1]; pMS-b complete responders,0.33
same,mean change in TW25F,[1]; pMS-b complete responders,−0.26
same,number of falls in the following 6 months in the 4 patients with significant increase (higher than 20%) in Po,[1]; pMS-b group,equal or lower number of falls
same,patients showing an increase in Po of more than 20%,"[1]; pMS-b group, 17 patients, M0 to M6",4
same,patients who increased their Po,"[1]; pMS-b group, out of the 17 patients, M0 to M6",8
same,patients who did not fall during the first 6-month period and began falling during the second 6-month period,"[1]; pMS-b group, M0-M6 vs M6-M12",3
same,patients who fell during the first 6-month period and stopped falling during the second 6-month period,"[1]; pMS-b group, M0-M6 vs M6-M12",1
same,mean change in Po,[1]; pMS-b non responders,−0.02
same,mean change in TW25F,[1]; pMS-b non responders,0.00
same,mean change in Po,[1]; pMS-b partial progressors,0.05
same,mean change in TW25F,[1]; pMS-b partial progressors,0.17
same,mean change in Po,[1]; pMS-b partial responders,0.14
same,mean change in TW25F,[1]; pMS-b partial responders,−0.17
same,effect on locomotion,[1]; small sample of pMS patients,improved the locomotion in a subset pMS patients
same,response to treatment as defined by a 20% decrease in TW25F,[2]; cohort of the phase 3 clinical trial [14],8.7%
same,patients in whom the T25FW time decreased by 20%,[2]; recently demonstrated efficacy of MD1003,10%
